Results from ChEMBL document CHEMBL3621049, “Imidazole derivatives show anticancer potential by inducing apoptosis and cellular senescence” (2014).
The source made the active and inactive calls. The calls are words filed in the database; no cut-off is given here.

Columns and labels:
[1] = system: COLO 205; test: Growth inhibition of human COLO205 cells at 10 uM by sulforhodamine B assay; format: functional, cell-based
[2] = system: KM12; test: Growth inhibition of human KM12 cells at 10 uM by sulforhodamine B assay; format: functional, cell-based
[3] = system: SK-MEL-5; test: Growth inhibition of human SK-MEL-5 cells at 10 uM by sulforhodamine B assay; format: functional, cell-based
[4] = system: 786-0; test: Growth inhibition of human 786-0 cells at 10 uM by sulforhodamine B assay; format: functional, cell-based
[5] = system: A549; test: Induction of apoptosis in human A549 cells assessed as activation of caspase; format: functional, cell-based
[6] = system: A549; test: Cell cycle arrest in human A549 cells assessed as accumulation at sub-G1 phase at 5 uM after 48 hrs using propidium iodide staining by flow cytometer analysis (reference value: 0.96%); format: functional
[7] = system: UACC-62; test: Growth inhibition of human UACC62 cells at 10 uM by sulforhodamine B assay; format: functional, cell-based
[8] = system: SF-295; test: Growth inhibition of human SF295 cells at 10 uM by sulforhodamine B assay; format: functional, cell-based
[9] = system: A549; test: Inhibition of cell migration in human A549 cells assessed as cells migrating into scratch area after 24 hrs by wound healing assay; format: functional, cell-based
[10] = system: NCI-H522; test: Growth inhibition of human NCI-H522 cells at 10 uM by sulforhodamine B assay; format: functional, cell-based
[11] = system: A549; test: Induction of morphological changes in human A549 cells at 10 to 50 uM; format: functional, cell-based
[12] = system: DU-145; test: Growth inhibition of human DU145 cells at 10 uM by sulforhodamine B assay; format: functional, cell-based
[13] = system: SF-268; test: Growth inhibition of human SF268 cells at 10 uM by sulforhodamine B assay; format: functional, cell-based
[14] = system: MDA-MB-468; test: Growth inhibition of human MDA-MB-468 cells at 10 uM by sulforhodamine B assay; format: functional, cell-based
[15] = system: A549; test: Cell cycle arrest in human A549 cells assessed as accumulation at S phase at 10 uM after 48 hrs using propidium iodide staining by flow cytometer analysis (reference value: 6.67%); format: functional
[16] = system: A549; test: Growth inhibition of human A549/ATCC cells at 10 uM by sulforhodamine B assay; format: functional, cell-based
[17] = system: A549; test: Cytotoxicity against human A549 cells assessed as decrease in cell viability at 10 uM after 24 hrs by MTT assay relative to control; format: functional
[18] = system: U-251; test: Growth inhibition of human U251 cells at 10 uM by sulforhodamine B assay; format: functional, cell-based
[19] = system: A549; test: Cytotoxicity against human A549 cells assessed as decrease in cell viability up to 72 hrs by MTT assay; format: functional, cell-based
[20] = system: A549; test: Inhibition of colony formation in human A549 cells assessed as change in colony morphology after 14 days using crystal violet staining by soft agar assay; format: functional, cell-based
[21] = system: NCI-H23; test: Growth inhibition of human NCI-H23 cells at 10 uM by sulforhodamine B assay; format: functional, cell-based
[22] = system: CCRF-CEM; test: Growth inhibition of human CCRF-CEM cells at 10 uM by sulforhodamine B assay; format: functional, cell-based
[23] = system: HCC 2998; test: Growth inhibition of human HCC2998 cells at 10 uM by sulforhodamine B assay; format: functional, cell-based
[24] = system: SK-MEL-2; test: Growth inhibition of human SK-MEL-2 cells at 10 uM by sulforhodamine B assay; format: functional, cell-based
[25] = system: SK-MEL-28; test: Growth inhibition of human SK-MEL-28 cells at 10 uM by sulforhodamine B assay; format: functional, cell-based
[26] = system: A549; test: Cell cycle arrest in human A549 cells assessed as accumulation at G0/G1 phase at 10 uM after 48 hrs using propidium iodide staining by flow cytometer analysis (reference value: 79.34%); format: functional
[27] = system: A549; test: Cell cycle arrest in human A549 cells assessed as accumulation at S phase at 5 uM after 48 hrs using propidium iodide staining by flow cytometer analysis (reference value: 6.67%); format: functional
[28] = system: A549; test: Cell cycle arrest in human A549 cells assessed as accumulation at G2/M phase at 5 uM after 48 hrs using propidium iodide staining by flow cytometer analysis (reference value: 13.02%); format: functional

In the case of COc1ccc(-c2nc(-c3ccccn3)c(-c3ccccn3)n2CC(C)C)cc1OC1CCCC1, the “growth inhibition (GI)” value [1] is reported as “Active”, the “growth inhibition (GI)” value [2] is reported as “Active” and the “growth inhibition (GI)” value [3] is reported as “Active”. The “growth inhibition (GI)” value [4] was “Active”, the Activity [5] was “inactive” and the Activity [6] was 2.49%. The “growth inhibition (GI)” value [7] was “Active”, the “growth inhibition (GI)” value [8] was “Active” and the inhibition [9] was “Dose-dependent effect”. The “growth inhibition (GI)” value [10] was “Active”, the Activity [11] was “Active” and the “growth inhibition (GI)” value [12] was “Active”. The “growth inhibition (GI)” value [13] was “Active”, the “growth inhibition (GI)” value [14] was “Active” and the Activity [15] was 9.95%. For the same compound, the “growth inhibition (GI)” value [16] was “Active”, the “fold change (FC)” value [17] was 2 and the “growth inhibition (GI)” value [18] was “Active”. The Activity [19] was “Dose-dependent effect”, the inhibition [20] was “Active” and the “growth inhibition (GI)” value [21] was “Active”. For the same compound, the “growth inhibition (GI)” value [22] was “Active”, the “growth inhibition (GI)” value [23] was “Active” and the “growth inhibition (GI)” value [24] was “Active”. For the same compound, the “growth inhibition (GI)” value [25] was “Active”, the Activity [26] was 75.7% and the Activity [27] was 3.47%. It also gave an Activity [28] of 4.65%.
